# Species: Rattus norvegicus
# Assay: DrugMatrix - Regimen: Daily Repeat
# Type: toxicity, organism-based, Sprague-Dawley
# Parameters: regimen Daily Repeat, gender Male, age 6-8 weeks
# Settings: in vivo, po, route oral GAVAGE, vehicle 100 % SALINE; for ABSOLUTE BASOPHIL / ABSOLUTE EOSINOPHIL / ABSOLUTE LYMPHOCYTE / ABSOLUTE MONOCYTE / ABSOLUTE SEGMENTED NEUTROPHIL / BASOPHIL / EOSINOPHIL / ERYTHROCYTE COUNT / HEMATOCRIT / HEMOGLOBIN / LEUKOCYTE COUNT / LYMPHOCYTE / MEAN CORPUSCULAR HEMOGLOBIN / MEAN CORPUSCULAR HEMOGLOBIN CONCENTRATION / MEAN CORPUSCULAR VOLUME / MONOCYTE / NEUTROPHIL / NUCLEATED RED BLOOD CELLS / PLATELET COUNT: tissue Blood; for ALANINE AMINOTRANSFERASE / ALBUMIN / ALKALINE PHOSPHATASE / ASPARTATE AMINOTRANSFERASE / BLOOD UREA NITROGEN / CARBON DIOXIDE / CHLORIDE / CHOLESTEROL / CREATINE PHOSPHOKINASE / CREATININE / GLUCOSE / LACTATE DEHYDROGENASE / LIPASE / PHOSPHORUS / POTASSIUM / SODIUM / TOTAL BILIRUBIN / TOTAL PROTEIN / URIC ACID: tissue Plasma
# [1] = 0 mg/kg, 72 h, dose level Control, time 3 day
# [2] = 0 mg/kg, 120 h, dose level Control, time 5 day
# [3] = 1200 mg/kg, 72 h, dose level High, time 3 day
# [4] = 1200 mg/kg, 120 h, dose level High, time 5 day
compound,measurement,setting,value
CC(=O)OCC(CCn1cnc2cnc(N)nc21)COC(C)=O [FAMCICLOVIR],ABSOLUTE BASOPHIL,[1],0 CELLS/uL
same,ABSOLUTE EOSINOPHIL,[1],37 CELLS/uL
same,ABSOLUTE LYMPHOCYTE,[1],12359.33 CELLS/uL
same,ABSOLUTE MONOCYTE,[1],122.67 CELLS/uL
same,ABSOLUTE SEGMENTED NEUTROPHIL,[1],847.67 CELLS/uL
same,BASOPHIL,[1],0%
same,EOSINOPHIL,[1],0.33%
same,ERYTHROCYTE COUNT,[1],5.75 x10E6/uL
same,HEMATOCRIT,[1],36.08%
same,HEMOGLOBIN,[1],14.07 G/DL
same,LEUKOCYTE COUNT,[1],13.37 x10E3/uL
same,LYMPHOCYTE,[1],92.5%
same,MEAN CORPUSCULAR HEMOGLOBIN,[1],24.47 pg
same,MEAN CORPUSCULAR HEMOGLOBIN CONCENTRATION,[1],38.98 G/DL
same,MEAN CORPUSCULAR VOLUME,[1],62.78 fL
same,MONOCYTE,[1],1%
same,NEUTROPHIL,[1],6.17%
same,NUCLEATED RED BLOOD CELLS,[1],0.17 /100WBC
same,PLATELET COUNT,[1],1202.17 x10E3/uL
same,ALANINE AMINOTRANSFERASE,[1],50.67 u/L
same,ALBUMIN,[1],4.13 G/DL
same,ALKALINE PHOSPHATASE,[1],356.33 u/L
same,ASPARTATE AMINOTRANSFERASE,[1],78.17 u/L
same,BLOOD UREA NITROGEN,[1],14.17 mg/dL
same,CARBON DIOXIDE,[1],31.33 mmol/L
same,CHLORIDE,[1],98.5 MEQ/L
same,CHOLESTEROL,[1],76.5 mg/dL
same,CREATINE PHOSPHOKINASE,[1],248.33 u/L
same,CREATININE,[1],0.2 mg/dL
same,GLUCOSE,[1],144 mg/dL
same,LACTATE DEHYDROGENASE,[1],107 u/L
same,LIPASE,[1],9.83 u/L
same,PHOSPHORUS,[1],12.8 mg/dL
same,POTASSIUM,[1],6.75 MEQ/L
same,SODIUM,[1],142 MEQ/L
same,TOTAL BILIRUBIN,[1],0.18 mg/dL
same,TOTAL PROTEIN,[1],5.98 G/DL
same,URIC ACID,[1],1.42 mg/dL
same,ABSOLUTE BASOPHIL,[2],0 CELLS/uL
same,ABSOLUTE EOSINOPHIL,[2],0 CELLS/uL
same,ABSOLUTE LYMPHOCYTE,[2],8681.17 CELLS/uL
same,ABSOLUTE MONOCYTE,[2],79.83 CELLS/uL
same,ABSOLUTE SEGMENTED NEUTROPHIL,[2],689 CELLS/uL
same,BASOPHIL,[2],0%
same,EOSINOPHIL,[2],0%
same,ERYTHROCYTE COUNT,[2],5.49 x10E6/uL
same,HEMATOCRIT,[2],33.55%
same,HEMOGLOBIN,[2],13.1 G/DL
same,LEUKOCYTE COUNT,[2],9.45 x10E3/uL
same,LYMPHOCYTE,[2],92.33%
same,MEAN CORPUSCULAR HEMOGLOBIN,[2],23.92 pg
same,MEAN CORPUSCULAR HEMOGLOBIN CONCENTRATION,[2],39.07 G/DL
same,MEAN CORPUSCULAR VOLUME,[2],61.22 fL
same,MONOCYTE,[2],0.67%
same,NEUTROPHIL,[2],7%
same,NUCLEATED RED BLOOD CELLS,[2],0.17 /100WBC
same,PLATELET COUNT,[2],1001.17 x10E3/uL
same,ALANINE AMINOTRANSFERASE,[2],49.33 u/L
same,ALBUMIN,[2],4.07 G/DL
same,ALKALINE PHOSPHATASE,[2],300.33 u/L
same,ASPARTATE AMINOTRANSFERASE,[2],83.5 u/L
same,BLOOD UREA NITROGEN,[2],16 mg/dL
same,CARBON DIOXIDE,[2],29.67 mmol/L
same,CHLORIDE,[2],100.5 MEQ/L
same,CHOLESTEROL,[2],74.33 mg/dL
same,CREATINE PHOSPHOKINASE,[2],489.67 u/L
same,CREATININE,[2],0.35 mg/dL
same,GLUCOSE,[2],151 mg/dL
same,LACTATE DEHYDROGENASE,[2],133.67 u/L
same,LIPASE,[2],11.17 u/L
same,PHOSPHORUS,[2],10.88 mg/dL
same,POTASSIUM,[2],5.5 MEQ/L
same,SODIUM,[2],145.7 MEQ/L
same,TOTAL BILIRUBIN,[2],0.2 mg/dL
same,TOTAL PROTEIN,[2],6.05 G/DL
same,URIC ACID,[2],0.68 mg/dL
same,ABSOLUTE BASOPHIL,[3],0 CELLS/uL
same,ABSOLUTE EOSINOPHIL,[3],0 CELLS/uL
same,ABSOLUTE LYMPHOCYTE,[3],7020.67 CELLS/uL
same,ABSOLUTE MONOCYTE,[3],111 CELLS/uL
same,ABSOLUTE SEGMENTED NEUTROPHIL,[3],835 CELLS/uL
same,BASOPHIL,[3],0%
same,EOSINOPHIL,[3],0%
same,ERYTHROCYTE COUNT,[3],5.23 x10E6/uL
same,HEMATOCRIT,[3],33.07%
same,HEMOGLOBIN,[3],13.03 G/DL
same,LEUKOCYTE COUNT,[3],7.97 x10E3/uL
same,LYMPHOCYTE,[3],88%
same,MEAN CORPUSCULAR HEMOGLOBIN,[3],24.97 pg
same,MEAN CORPUSCULAR HEMOGLOBIN CONCENTRATION,[3],39.4 G/DL
same,MEAN CORPUSCULAR VOLUME,[3],63.33 fL
same,MONOCYTE,[3],1.33%
same,NEUTROPHIL,[3],10.67%
same,NUCLEATED RED BLOOD CELLS,[3],0 /100WBC
same,PLATELET COUNT,[3],1079.67 x10E3/uL
same,ALANINE AMINOTRANSFERASE,[3],49 u/L
same,ALBUMIN,[3],4.07 G/DL
same,ALKALINE PHOSPHATASE,[3],334 u/L
same,ASPARTATE AMINOTRANSFERASE,[3],80.33 u/L
same,BLOOD UREA NITROGEN,[3],14.33 mg/dL
same,CARBON DIOXIDE,[3],29.33 mmol/L
same,CHLORIDE,[3],100.67 MEQ/L
same,CHOLESTEROL,[3],77.33 mg/dL
same,CREATINE PHOSPHOKINASE,[3],294 u/L
same,CREATININE,[3],0.2 mg/dL
same,GLUCOSE,[3],160 mg/dL
same,LACTATE DEHYDROGENASE,[3],118.67 u/L
same,LIPASE,[3],10 u/L
same,PHOSPHORUS,[3],11.4 mg/dL
same,POTASSIUM,[3],5.59 MEQ/L
same,SODIUM,[3],144.23 MEQ/L
same,TOTAL BILIRUBIN,[3],0.17 mg/dL
same,TOTAL PROTEIN,[3],5.83 G/DL
same,URIC ACID,[3],0.93 mg/dL
same,ABSOLUTE BASOPHIL,[4],0 CELLS/uL
same,ABSOLUTE EOSINOPHIL,[4],0 CELLS/uL
same,ABSOLUTE LYMPHOCYTE,[4],9833.67 CELLS/uL
same,ABSOLUTE MONOCYTE,[4],110.67 CELLS/uL
same,ABSOLUTE SEGMENTED NEUTROPHIL,[4],822.33 CELLS/uL
same,BASOPHIL,[4],0%
same,EOSINOPHIL,[4],0%
same,ERYTHROCYTE COUNT,[4],5.64 x10E6/uL
same,HEMATOCRIT,[4],35.27%
same,HEMOGLOBIN,[4],13.9 G/DL
same,LEUKOCYTE COUNT,[4],10.77 x10E3/uL
same,LYMPHOCYTE,[4],91.33%
same,MEAN CORPUSCULAR HEMOGLOBIN,[4],24.73 pg
same,MEAN CORPUSCULAR HEMOGLOBIN CONCENTRATION,[4],39.43 G/DL
same,MEAN CORPUSCULAR VOLUME,[4],62.77 fL
same,MONOCYTE,[4],1%
same,NEUTROPHIL,[4],7.67%
same,NUCLEATED RED BLOOD CELLS,[4],0.33 /100WBC
same,PLATELET COUNT,[4],1147.67 x10E3/uL
same,ALANINE AMINOTRANSFERASE,[4],54 u/L
same,ALBUMIN,[4],4.03 G/DL
same,ALKALINE PHOSPHATASE,[4],380.67 u/L
same,ASPARTATE AMINOTRANSFERASE,[4],82.33 u/L
same,BLOOD UREA NITROGEN,[4],13 mg/dL
same,CARBON DIOXIDE,[4],29.67 mmol/L
same,CHLORIDE,[4],100.67 MEQ/L
same,CHOLESTEROL,[4],75.67 mg/dL
same,CREATINE PHOSPHOKINASE,[4],286 u/L
same,CREATININE,[4],0.31 mg/dL
same,GLUCOSE,[4],147.33 mg/dL
same,LACTATE DEHYDROGENASE,[4],106 u/L
same,LIPASE,[4],9.33 u/L
same,PHOSPHORUS,[4],11.2 mg/dL
same,POTASSIUM,[4],5.79 MEQ/L
same,SODIUM,[4],145.73 MEQ/L
same,TOTAL BILIRUBIN,[4],0.17 mg/dL
same,TOTAL PROTEIN,[4],5.77 G/DL
same,URIC ACID,[4],0.73 mg/dL
